Assays:
Cdc2 = Cdc2 kinase activity (immunoprecipitated, histone substrate) in synchronized HeLa cells; assay type: cell-based
Description: (§1) In some experiments, cells were synchronized by double thymidine block as previously described (18-19). Briefly, cells were incubated for 16 hours with 2 mM thymidine in 10% FBS containing DMEM. The excess thymidine was washed off with Hanks Buffered Saline Solution (HBSS) and cells were released back into the cell cycle with complete medium. After 8 hours, cells were treated a second time with 2 mM thymidine in 10% FBS containing DMEM for another 16 hours to arrest cells at the G1/S-phase boundary. Synchronized cells were then washed with HBSS and released back into the cell cycle and harvested at various time points after G1/S release for analysis. Cell cycle analysis was done by fluorescence activated cell sorting (FACS) as described below.
Cdc2 was immunoprecipitated from cell lysates by incubating with Cdc2 antibody (0.5 μg) for 2 hours on ice. The lysates then were incubated with protein G-sepharose with mixing at 4° C. for an additional 2 hours. The immune-complex was washed with cold kinase buffer and incubated for 30 min at 30° C. with kinase buffer containing 10 μCi γ-^32P ATP, 20 μM cold ATP, and 2.5 μg histone (Type III-SS, Sigma) as a substrate. The reactions were stopped with SDS-PAGE sample buffer and the proteins were resolved by SDS-PAGE. Incorporation of ^32P into histone was determined by phosphorimager analysis.

HeLa cells [1] = test: Mitotic spindle immunostaining (α/γ-tubulin, DAPI) in synchronized HeLa cells; assay type: cell-based
Description: as §1
(§2) Cells grown on round glass coverslips in 6-centimeter plates were synchronized at the G1/S-phase boundary using excess thymidine as described in Example 4. At the indicated time after release back into the cell cycle, coverslips were fixed with 4% paraformaldehyde for 8 minutes and permeabilized with 0.1% Triton X-100 in PBS for 2 minutes. Cell staining patterns were confirmed in cells that were fixed and permeabilized with cold methanol for 10 minutes. Cells were stained with antibodies against MLK3, α-tubulin, cyclin B1, phospho-specific histone H3, or p62 nucleoporin followed by incubation with fluorescein or Texas Red conjugated secondary antibodies and counterstaining for cellular DNA with 4′,6-diamidino-2-phenylindole (DAPI, 0.2 μg/ml in PBS). Cells were identified using Nikon E800 Epi-fluorescence microscope (Image Systems, Columbia, Md.) and captured with a Hamamatsu CCD camera. Cell images were processed using IPlab software (Scanalytics, Fairfax, Va.).

HEK293 cells = test: FACS analysis of DNA content (cell cycle); assay type: cell-based; conditions: treated for 20 hours; indicative of arrest in G2 or M-phase
Description: (§3) Synchronized cells were trypsinized, washed with PBS, fixed with 3 ml of cold (−20° C.) 70% ethanol, and stored at 4° C. overnight. Cells then were incubated with 100 μg/ml propidium iodide (Sigma) dissolved in 0.2 M Tris, pH 7.5, 20 mM EDTA, 1 mg/ml RNase A (Sigma) for 1 hour at room temperature and diluted with an equal volume of PBS. DNA content was measured by flow cytometry (FACScan Analyzer, BD Biosciences) and was analyzed using the Sync Wizard Model, ModFit LT software (BD Biosciences). To determine the percentage of G1, S and G2/M-phase cells, the settings for 2N and 4N peaks were defined within each experiment from the G1/S arrested cells and applied to all samples within a given experiment.

NIH 3T3 cells = test: Cell proliferation assay (cell counting, trypan blue); assay type: cell-based; conditions: CEP-11004 500 nM, up to 72 hours, cell number
Description: (§4) Following treatments cells were counted on a hemocytometer following trypsinization and staining with trypan blue (Sigma). Greater than 95% of the cells excluded trypan blue dye. Cell proliferation also was measured using a colony formation assay. […] Following incubation for 8-14 days, cells were fixed for 10 minutes in 4% paraformaldehyde and stained with 0.2% crystal violet (in 20% methanol) for 1-2 minutes. Cells were washed several times with distilled water and colonies formed (at least 40 cells/per colony) were counted.

HeLa cells [2] = test: as above; assay type: cell-based; conditions: CEP-11004 500 nM, up to 72 hours, cell number
Description: as §4

cyclin B1 = test: Cyclin B1 immunoblot in synchronized HeLa cells; assay type: cell-based
Description: as §1
For protein analysis, cells were washed twice with cold phosphate buffered saline (PBS), lysed with 300 μl of tissue lysis buffer (TLB) (20 mM Tris-base, pH 7.4, 137 mM NaCl, 2 mM EDTA, 1% Triton X-100, 25 mM β-glycerophosphate, 2 mM sodium pyrophosphate, 10% glycerol, 1 mM sodium orthovanadate, 1 mM phenylmethysulfonyl fluoride (PMSF), and 1 mM benzamidine) and centrifuged at 20,000×g to clarify lysates. Approximately 20 μg of total protein was separated by SDS-PAGE. Proteins were transferred to PVDF membrane (Perkin Elmer Life Sciences; Boston, Mass.), blocked for 1-2 hours with 5% nonfat dry milk in Tris-buffered saline (TBS) (50 mM Tris-base, pH 7.4, 0.15 M NaCl, and 0.1% Tween-20) and incubated with the primary antibodies in TBS containing 1% BSA solution for 1 to 16 hours. Membranes were washed several times in TBS-Tween solution and incubated with HRP conjugated anti-mouse or anti-rabbit antibodies (0.1 μg/ml). Immunoreactivity was detected by enhanced chemiluminescence (ECL; Amersham, Buckinghamshire, England).

MLK3 [3] = biological target: T1, MLK3 (Homo sapiens, UniProt Q16584); test: MLK3-induced ERK activation in transfected HeLa cells (ppERK immunoblot); assay type: cell-based; conditions: CEP-11004 500 nM
T1 construct: expressed in transfected cells; host or cells: HeLa
T1 sequence (Q16584 whole entry): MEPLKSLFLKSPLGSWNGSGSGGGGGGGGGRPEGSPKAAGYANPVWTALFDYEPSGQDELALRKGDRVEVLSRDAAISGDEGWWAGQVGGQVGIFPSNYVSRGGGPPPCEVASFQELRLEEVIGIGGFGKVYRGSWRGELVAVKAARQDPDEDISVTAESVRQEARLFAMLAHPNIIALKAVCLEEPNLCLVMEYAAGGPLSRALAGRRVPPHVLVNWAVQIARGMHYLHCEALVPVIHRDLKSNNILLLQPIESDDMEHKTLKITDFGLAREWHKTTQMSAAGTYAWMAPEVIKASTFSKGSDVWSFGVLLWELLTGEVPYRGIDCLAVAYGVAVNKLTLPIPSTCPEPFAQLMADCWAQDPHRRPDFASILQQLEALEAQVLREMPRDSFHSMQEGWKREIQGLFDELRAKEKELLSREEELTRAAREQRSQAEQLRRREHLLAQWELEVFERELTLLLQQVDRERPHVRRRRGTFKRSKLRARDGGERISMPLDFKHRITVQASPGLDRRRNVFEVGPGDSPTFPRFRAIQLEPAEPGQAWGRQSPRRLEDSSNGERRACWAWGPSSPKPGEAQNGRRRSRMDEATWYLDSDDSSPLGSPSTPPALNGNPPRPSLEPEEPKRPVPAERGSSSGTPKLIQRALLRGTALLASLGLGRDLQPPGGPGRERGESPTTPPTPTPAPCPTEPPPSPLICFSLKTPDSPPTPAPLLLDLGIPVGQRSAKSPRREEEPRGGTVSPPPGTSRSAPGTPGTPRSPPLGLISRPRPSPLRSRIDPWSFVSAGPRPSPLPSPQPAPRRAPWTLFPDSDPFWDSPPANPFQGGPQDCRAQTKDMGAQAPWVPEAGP
Description: (§5) HeLa, NIH 3T3, HEK293, A549, or MRC-5 cells were grown in a DMEM supplemented with 10% fetal bovine serum (FBS) and penicillin (100 U/ml) and streptomycin (100 μg/ml). Estrogen receptor (ER) negative breast cancer cells, SUM-159, were obtained from the University of Michigan Human Breast Cancer Cell Lines (SUM-Lines) and grown in DMEM+10% FBS. In some experiments, cells were transfected with cDNA (1 μg) for pEGFP (BD Biosciences/Clontech, Palo Alto, Calif.), hemagglutinin (HA)-tagged MLK3, kinase dead mutant MLK3 (MLK3 K144R), GFP-tagged MLK2 (kindly provided by Dr. Donna Dorow), Flag-tagged DLK, or HA-tagged JNK1 using Lipofectamine® (Invitrogen, Carlsbad, Calif.). Transfected cells were harvested 16-24 hours after transfection.
(§6) For protein analysis, cells were washed twice with cold phosphate buffered saline (PBS), lysed with 300 μl of tissue lysis buffer (TLB) (20 mM Tris-base, pH 7.4, 137 mM NaCl, 2 mM EDTA, 1% Triton X-100, 25 mM β-glycerophosphate, 2 mM sodium pyrophosphate, 10% glycerol, 1 mM sodium orthovanadate, 1 mM phenylmethysulfonyl fluoride (PMSF), and 1 mM benzamidine) and centrifuged at 20,000×g to clarify lysates. Approximately 20 μg of total protein was separated by SDS-PAGE. […] Immunoreactivity was detected by enhanced chemiluminescence (ECL; Amersham, Buckinghamshire, England).

MLK3 [4] = biological target: T1, MLK3; conditions: reference 11; cited from earlier work
MLK3 [5] = biological target: T1, MLK3; test: MLK3 induced JNK phosphorylation in transfected cells (immunoblot); assay type: cell-based
Description: as §5, §6

HeLa cells [6] = test: Mitotic index / mitotic stage assay (DAPI) in synchronized HeLa cells; assay type: cell-based
Description: as §1
Cells grown on coverslips were synchronized at the G1/S-phase boundary as described in Examples 4-5. In some cases, MLK3 was co-expressed with the pEGFP vector in order to identify transfected cells. […] At varying times after release, coverslips were fixed and cellular DNA was stained with DAPI. GFP-positive mitotic cells in prophase, prometaphase, metaphase, anaphase, or telophase were identified, counted, and expressed as a fraction of the total cells counted to determine the mitotic index. Within each experiment, 300 to 350 cells were counted for each condition and time point.

HeLa cells [7] = test: FACS analysis of DNA content (cell cycle); assay type: cell-based
Description: as §1
as §3, with “To determine the percentage of G1, S and G2/M-phase cells, the settings for 2N and 4N peaks were defined within each experiment from the G1/S arrested cells and applied to all samples within a given experiment.” left out

[8] = system: A549 airway epithelia carcinoma cell; test: Colony formation assay; assay type: cell-based; conditions: varying doses, 14 days, crystal violet
Description: as §4

MKK1 = test: Constitutively active MKK1 induced ERK activation in transfected HeLa cells (ppERK immunoblot); assay type: cell-based; conditions: CEP-11004 500 nM
Description: as §5, §6

histone H3 = test: Phospho-histone H3 (serine 10) immunofluorescence in synchronized HeLa cells; assay type: cell-based
Description: as §1, §2

MLK3 [9] = biological target: T1, MLK3; test: MLK3 kinase assay (immunoprecipitated from treated transfected cells, MBP substrate); assay type: cell-based
Description: Immunoprecipitated MLK3 was incubated for 45 min at 30° C. with kinase buffer containing 10 μCi γ-^32P ATP, 20 μM cold ATP, and 0.5 μg myelin basic protein (MBP) as a substrate. The reaction was quenched with 2×SDS sample buffer, separated by SDS-PAGE and transferred to PVDF membranes (Perkin Elmer, Boston, Mass.). Radioactive phosphate incorporation into MBP and MLK3 were analyzed by phosphorimager (Amersham Biosciences/Molecular Dynamics) and immunoblotting, respectively.

ERK pathway = conditions: neuronal cells, reported (12); cited from earlier work
[10] = 11 and 13 hours after G1/S-phase release, vs untreated
[11] = treated at end of S-phase for 4 hours
[12] = 400 nM, added 5 hours after release

3,9-bis-[(isopropylthio)methyl]-(8R*,9S*, 11S*)-(−)-9-hydroxy-9-methoxycarbonyl-8-methyl-2,3,9,10-tetrahydro-8,11-epoxy-1H,8H,11H-2,7b,11a-triazadibenzo(a,g)cycloocta(cde)trinden-1-one [CEP-11004]
Cdc2 kinase activity in synchronized HeLa cells (Cdc2; [10]): elevated Cdc2 kinase activity | Cdc2 activity in mock transfected vs MLK3 transfected cells (Cdc2; 100 or 200 nM CEP-11004): higher Cdc2 activity | chromosome organization (DAPI) (HeLa cells [1]; [11]): highly disorganized | microtubule organization (α-tubulin) in mitotic cells (HeLa cells [1]; [11]): significant disruption | mitotic cells with aberrant microtubule organization (HeLa cells [1]; [11]): Greater than 60% | number of spindle poles (γ-tubulin) (HeLa cells [1]; [11]): no effect | microtubules of interphase cells (HeLa cells [1]; treated for 4 hours, data not shown): no apparent effects | DNA content by FACS, HEK293 cells (HEK293 cells): accumulated 4N DNA | proliferation of NIH 3T3 cells (NIH 3T3 cells): unaffected | HeLa cell proliferation (HeLa cells [2]): inhibited | cyclin B1 expression in synchronized HeLa cells (cyclin B1; [10]): sustained cyclin B1 expression | cyclin B1 levels in mock transfected cells (cyclin B1; 100 or 200 nM CEP-11004, 8 hours): elevated | cyclin B1 levels in MLK3 transfected cells (cyclin B1; 100 or 200 nM, vs mock transfected): lower cyclin B1 levels | MLK3-induced ERK activation (MLK3 [3]): inhibited | specificity towards MLK3 as compared to MLK2 (MLK3 [4]): approximately 3 fold | inhibition of MLK3 induced JNK1 phosphorylation (MLK3 [5]; 100 nM CEP-11004, HA-MLK3 + HA-JNK1 co-expressed): 80% | MLK3 induced JNK phosphorylation (MLK3 [5]; CEP-11004 500 nM, 4 hours, transfected cells): inhibited MLK3 | cells in metaphase or anaphase/telophase at 9 hours after G1/S (HeLa cells [6]; [12]): not evident | mitotic stage at 11 hours after G1/S release (HeLa cells [6]; [12]): primarily accumulated in pro-metaphase | pro-metaphase cells at 9 hours after G1/S (HeLa cells [6]; 400 nM, added 5 hours after release, vs untreated): accumulation of pro-metaphase cells | concentrations at which mitotic arrest occurs (HeLa cells [6]; as low as, FIGS. 6A-6C): 100 to 200 nM | percentage of pro-metaphase cells vs concentration (HeLa cells [6]; various concentrations for 8 hours (13 hours after G1/S release)): dose-dependent increase | cell cycle progression in synchronized HeLa cells (4N DNA) (HeLa cells [7]; added 5 hours after G1/S release, 11 and 13 hours after release): arrest in G2 or M-phase | DNA content by FACS, HeLa cells (HeLa cells [7]; treated for 20 hours, indicative of arrest in G2 or M-phase): accumulated 4N DNA | A549 colony formation [8]: dose dependent inhibition | activity of MKK1 (non-MLK related protein kinase) (MKK1): does not affect | nuclear pH3 staining during prophase (histone H3; added 5 hours after G1/S release, additional 4 hours): did not contain nuclear pH3 staining | pH3 staining after NEB in pro-metaphase (histone H3; both untreated and treated cells): readily apparent | lowest dose with inhibited pH3 staining in early mitotic cells (histone H3; data not shown): 200 nM | pH3 staining in early mitosis before NEB (histone H3; p62 nucleoporin co-staining): not observed | expressed MLK3 activity (MBP phosphorylation) (MLK3 [9]; HA-MLK3 in HeLa cells, CEP-11004 500 nM, 4 hours): significantly inhibited | MLK3 activity during G2 and M-phase transitions (MLK3 [9]; data not shown): blocked

CCSCc1ccc2c(c1)c1c3c(c4c5cc(CSCC)ccc5n5c4c1n2[C@H]1C[C@](O)(C(=O)OC)[C@]5(C)O1)CNC3=O (relative stereo) [CEP-1347, 3,9-bis[(ethylthio)methyl]-(8R*,9S*,11-S*)-(−)-9-hydroxy-9-methoxycarbonyl-8-methyl 2,3,9,10-tetrahydro-8,11-epoxy-1H,8H, 11H-2,7b,11a-triazadibenzo(a,g)cycloocta(cde)trinden-1-one]
effect on the ERK pathway (ERK pathway): activate the ERK pathway

Reference: patent publication US20050209299A1, “Inhibition of mixed lineage kinases and uses therefor” (University of Maryland, Baltimore, priority 2004, published 2005)
